Assay results as given in publication PMC10620772, “Design, synthesis, and biological evaluation of new pyrimidine-5-carbonitrile derivatives as novel anti-cancer, dual EGFR^WT/COX-2 inhibitors with docking studies” (RSC Advances, 2023).

Key:
Assay type in all cases: cell-based, human
CCRF-CEM = assay: NCI60 antitumor screening; conditions: Homo sapiens; 10 μM single dose; CCRF-CEM (leukaemia); read-out: growth inhibition percent (GI%)
HL-60(TB) = assay: NCI60 antitumor screening; conditions: Homo sapiens; 10 μM single dose; HL-60(TB) (leukaemia); read-out: growth inhibition percent (GI%)
RPMI-8226 = assay: NCI60 antitumor screening; conditions: Homo sapiens; 10 μM single dose; RPMI-8226 (leukaemia); read-out: growth inhibition percent (GI%)
EKVX = assay: NCI60 antitumor screening; conditions: Homo sapiens; 10 μM single dose; EKVX (non-small cell lung cancer); read-out: growth inhibition percent (GI%)
HOP-62 = assay: NCI60 antitumor screening; conditions: for inhibition at 10 µM: Homo sapiens, 10 μM single dose, HOP-62 (non-small cell lung cancer), read-out: growth inhibition percent (GI%)
NCI-H23 = assay: NCI60 antitumor screening; conditions: Homo sapiens; 10 μM single dose; NCI-H23 (non-small cell lung cancer); read-out: growth inhibition percent (GI%)
NCI-H460 = assay: NCI60 antitumor screening; conditions: Homo sapiens; 10 μM single dose; NCI-H460 (non-small cell lung cancer); read-out: growth inhibition percent (GI%)
NCI-H522 = assay: NCI60 antitumor screening; conditions: Homo sapiens; 10 μM single dose; NCI-H522 (non-small cell lung cancer); read-out: growth inhibition percent (GI%)
COLO 205 = assay: NCI60 antitumor screening; conditions: Homo sapiens; 10 μM single dose; COLO 205 (colon cancer); read-out: growth inhibition percent (GI%)
HCC-2998 = assay: NCI60 antitumor screening; conditions: Homo sapiens; 10 μM single dose; HCC-2998 (colon cancer); read-out: growth inhibition percent (GI%)
HCT-116 = assay: NCI60 antitumor screening; conditions: Homo sapiens; 10 μM single dose; HCT-116 (colon cancer); read-out: growth inhibition percent (GI%)
HT29 = assay: NCI60 antitumor screening; conditions: Homo sapiens, HT-29; 10 μM single dose; HT29 (colon cancer); read-out: growth inhibition percent (GI%)
SNB-19 = assay: NCI60 antitumor screening; conditions: Homo sapiens; 10 μM single dose; SNB-19 (CNS cancer); read-out: growth inhibition percent (GI%)
SNB-75 = assay: NCI60 antitumor screening; conditions: for inhibition at 10 µM: Homo sapiens, 10 μM single dose, SNB-75 (CNS cancer), read-out: growth inhibition percent (GI%)
U251 = assay: NCI60 antitumor screening; conditions: Homo sapiens, U-251; 10 μM single dose; U251 (CNS cancer); read-out: growth inhibition percent (GI%)
LOX IMVI = assay: NCI60 antitumor screening; conditions: Homo sapiens; 10 μM single dose; LOX IMVI (melanoma); read-out: growth inhibition percent (GI%)
M14 = assay: NCI60 antitumor screening; conditions: Homo sapiens; 10 μM single dose; M14 (melanoma); read-out: growth inhibition percent (GI%)
SK-MEL-28 = assay: NCI60 antitumor screening; conditions: Homo sapiens; 10 μM single dose; SK-MEL-28 (melanoma); read-out: growth inhibition percent (GI%)
IGROV1 = assay: NCI60 antitumor screening; conditions: Homo sapiens, IGROV-1; 10 μM single dose; IGROV1 (ovarian cancer); read-out: growth inhibition percent (GI%)
OVCAR-3 = assay: NCI60 antitumor screening; conditions: Homo sapiens; 10 μM single dose; OVCAR-3 (ovarian cancer); read-out: growth inhibition percent (GI%)
NCI/ADR-RES = assay: NCI60 antitumor screening; conditions: Homo sapiens; 10 μM single dose; NCI/ADR-RES (ovarian cancer); read-out: growth inhibition percent (GI%)
786–0 = assay: NCI60 antitumor screening; conditions: for inhibition at 10 µM: Homo sapiens, 10 μM single dose, 786–0 (renal cancer), read-out: growth inhibition percent (GI%)
A498 = assay: NCI60 antitumor screening; conditions: Homo sapiens; 10 μM single dose; A498 (renal cancer); read-out: growth inhibition percent (GI%)
ACHN = assay: NCI60 antitumor screening; conditions: Homo sapiens; 10 μM single dose; ACHN (renal cancer); read-out: growth inhibition percent (GI%)
RXF 393 = assay: NCI60 antitumor screening; conditions: for inhibition at 10 µM: Homo sapiens, 10 μM single dose, RXF 393 (renal cancer), read-out: growth inhibition percent (GI%)
SN12C = assay: NCI60 antitumor screening; conditions: Homo sapiens; 10 μM single dose; SN12C (renal cancer); read-out: growth inhibition percent (GI%)
TK-10 = assay: NCI60 antitumor screening; conditions: Homo sapiens; 10 μM single dose; TK-10 (renal cancer); read-out: growth inhibition percent (GI%)
UO-31 = assay: NCI60 antitumor screening; conditions: Homo sapiens; 10 μM single dose; UO-31 (renal cancer); read-out: growth inhibition percent (GI%)
PC-3 = assay: NCI60 antitumor screening; conditions: Homo sapiens; 10 μM single dose; PC-3 (prostate cancer); read-out: growth inhibition percent (GI%)
DU-145 = assay: NCI60 antitumor screening; conditions: Homo sapiens, DU-145; read-out: growth inhibition percent (GI%)
BT-549 = assay: NCI60 antitumor screening; conditions: Homo sapiens; 10 μM single dose; BT-549 (breast cancer); read-out: growth inhibition percent (GI%)
T-47D = assay: NCI60 antitumor screening; conditions: Homo sapiens, T47D; 10 μM single dose; T-47D (breast cancer); read-out: growth inhibition percent (GI%)
NCI60 cell lines panel = assay: NCI60 antitumor screening, full panel; conditions: for One-dose activity over the NCI60 panel: 10 μM; for inhibition at 10 µM: Homo sapiens, 10 μM single dose, mean over NCI60 cell lines, read-out: Mean growth inhibition percent (GI%)
How it was run: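 Single-concentration screen at 10 μM across the NCI60 panel (leukaemia, NSCLC, colon, CNS, melanoma, ovarian, renal, prostate, breast). Results are expressed as percent growth inhibition (GI%) of treated lines.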

Compound	inhibition at 10 µM (CCRF-CEM) [%]	inhibition at 10 µM (HL-60(TB)) [%]	inhibition at 10 µM (RPMI-8226) [%]	inhibition at 10 µM (EKVX) [%]	inhibition at 10 µM (HOP-62) [%]	inhibition at 10 µM (NCI-H23) [%]	inhibition at 10 µM (NCI-H460) [%]	inhibition at 10 µM (NCI-H522) [%]	inhibition at 10 µM (COLO 205) [%]	inhibition at 10 µM (HCC-2998) [%]	inhibition at 10 µM (HCT-116) [%]	inhibition at 10 µM (HT29) [%]	inhibition at 10 µM (SNB-19) [%]	inhibition at 10 µM (SNB-75) [%]	inhibition at 10 µM (U251) [%]	inhibition at 10 µM (LOX IMVI) [%]	inhibition at 10 µM (M14) [%]	inhibition at 10 µM (SK-MEL-28) [%]	inhibition at 10 µM (IGROV1) [%]	inhibition at 10 µM (OVCAR-3) [%]	other results
Cc1ccc(CSc2nc(-c3ccc(F)cc3)c(C#N)c(N3CCN(C)CC3)n2)cc1 [4l, 4-(4-Fluorophenyl)-2-((4-methylbenzyl)thio)-6-(4-methylpiperazin-1-yl) pyrimidine-5-carbonitrile]	15.2	12.2	15.5	12.5	12.8	< 10	< 10	33.4	< 10	< 10	13.1	10.6	14.3	35.6	< 10	12.8	< 10	< 10	< 10	< 10	inhibition at 10 µM (NCI/ADR-RES): 12.7%; inhibition at 10 µM (786–0): 44.2%; inhibition at 10 µM (A498): < 10%; inhibition at 10 µM (ACHN): 29.9%; inhibition at 10 µM (RXF 393): 42.4%; inhibition at 10 µM (SN12C): 11.9%; inhibition at 10 µM (TK-10): < 10%; inhibition at 10 µM (UO-31): 17.6%; inhibition at 10 µM (PC-3): 24.2%; inhibition at 10 µM (DU-145): < 10%; inhibition at 10 µM (BT-549): 10.8%; inhibition at 10 µM (T-47D): 18.1%; One-dose activity over the NCI60 panel (NCI60 cell lines panel): moderate activity against numerous cell lines; inhibition at 10 µM (NCI60 cell lines panel): 11.2%
N#Cc1c(-c2ccc(F)cc2)nc(SCc2ccc(F)cc2)nc1N1CCN(c2ccccc2)CC1 [4n, 2-((4-Fluorobenzyl)thio)-4-(4-fluorophenyl)-6-(4-phenylpiperazin-1-yl)pyrimidine-5-carbonitrile]	16.6	< 10	22.3	18.7	< 10	< 10	< 10	10.3	< 10	< 10	11.8	< 10	< 10	15.6	< 10	< 10	10.1	< 10	< 10	< 10	inhibition at 10 µM (NCI/ADR-RES): < 10%; inhibition at 10 µM (786–0): < 10%; inhibition at 10 µM (A498): < 10%; inhibition at 10 µM (ACHN): < 10%; inhibition at 10 µM (RXF 393): < 10%; inhibition at 10 µM (SN12C): < 10%; inhibition at 10 µM (TK-10): < 10%; inhibition at 10 µM (UO-31): < 10%; inhibition at 10 µM (PC-3): 25.2%; inhibition at 10 µM (DU-145): < 10%; inhibition at 10 µM (BT-549): < 10%; inhibition at 10 µM (T-47D): 24.3%; inhibition at 10 µM (NCI60 cell lines panel): < 10%
CN1CCN(c2nc(SCc3ccc([N+](=O)[O-])cc3)nc(-c3ccc(F)cc3)c2C#N)CC1 [4k, 4-(4-Fluorophenyl)-6-(4-methylpiperazin-1-yl)-2-((4-nitrobenzyl)thio)pyrimidine-5-carbonitrile]	17.5	< 10	17.8	22.4	26.3	19.7	< 10	21.3	< 10	< 10	18.4	< 10	29.6	25.7	< 10	20.9	< 10	14.4	< 10	< 10	inhibition at 10 µM (NCI/ADR-RES): 25.1%; inhibition at 10 µM (786–0): 26.4%; inhibition at 10 µM (A498): < 10%; inhibition at 10 µM (ACHN): 31.5%; inhibition at 10 µM (RXF 393): 68.5%; inhibition at 10 µM (SN12C): 15.8%; inhibition at 10 µM (TK-10): < 10%; inhibition at 10 µM (UO-31): 40%; inhibition at 10 µM (PC-3): 25.9%; inhibition at 10 µM (DU-145): < 10%; inhibition at 10 µM (BT-549): 46.5%; inhibition at 10 µM (T-47D): 28.6%; One-dose activity over the NCI60 panel (NCI60 cell lines panel): moderate activity against numerous cell lines; inhibition at 10 µM (NCI60 cell lines panel): 17.5%
CN1CCN(c2nc(SCc3ccc(F)cc3)nc(-c3ccc(F)cc3)c2C#N)CC1 [4j, 2-((4-Fluorobenzyl)thio)-4-(4-fluorophenyl)-6-(4-methylpiperazin-1-yl)pyrimidine-5-carbonitrile]	< 10	< 10	15	18.4	64.4	22.2	< 10	23.6	< 10	< 10	25.3	< 10	40.3	74.9	26.2	22.9	10.4	16.2	16.9	16.1	GI% (HOP-62; 10 μM one-dose, Table 1): — (GI value > 70%); GI% (SNB-75; 10 μM one-dose, Table 1): 74.91%; inhibition at 10 µM (NCI/ADR-RES): 42.9%; GI% (786–0; 10 μM one-dose, Table 1): — (GI value > 70%); inhibition at 10 µM (786–0): 67.1%; inhibition at 10 µM (A498): < 10%; inhibition at 10 µM (ACHN): 39.1%; GI% (RXF 393; 10 μM one-dose, Table 1): 80.61%; inhibition at 10 µM (RXF 393): 80.6%; inhibition at 10 µM (SN12C): 20.5%; inhibition at 10 µM (TK-10): 15%; inhibition at 10 µM (UO-31): 30.1%; inhibition at 10 µM (PC-3): 32.3%; inhibition at 10 µM (DU-145): < 10%; inhibition at 10 µM (BT-549): 32%; inhibition at 10 µM (T-47D): 18.3%; inhibition at 10 µM (NCI60 cell lines panel): 25.1%
